Earlier results as cited in US20070092568A1 (priority 2005, published 2007).
Counter-ions that a name gives are not always drawn.

## COc1ccc2c3c1O[C@H]1C[C@@H](O)C=C[C@@]31CCN(C)C2 [Galantamine hydrobromide, (4aS,6R,8aS)-4a,5,9,10,11,12-hexahydro-3-methoxy-11-methyl-6H-benzofuro[3a,3,2-ef][2]benzazepin-6-ol]
  Solubility in water: sparingly soluble in water
